Laboratory results from patent US10010559B2, “Use of derivatives containing C-O-P bonds in patients with kidney failure” (LABORATORIOS SANIFIT, S.L., priority 2013, dated 2018).

Tests used:
[1] = HAP crystallisation induction period (synergy with other treatments); type: physicochemical
Method: Objective: to evaluate the potential synergies between the effects of IP6 and the effects of other treatments for renal impairment.
Experimental: hydroxyapatite (HAP) was crystallised by mixing appropriate concentrations of calcium and phosphate at pH 7.4. The effect of cinacalcet and sevelamer was simulated by suitably modifying the calcium and phosphate concentrations. The induction period (time required for HAP to begin to crystallise) was recorded as the analytical signal.

[2] = tested on: vit D-induced cardiovascular calcification; test: Inhibition of vit D-induced (300,000 IU/kg x3) cardiovascular calcification by s.c. IP6; type: in vivo, SD rats
Method: Objective: to evaluate the efficacy of s.c. IP6 for inhibiting vit D-induced cardiovascular calcification in rats. Experimental: male SD rats were divided into 9 groups. Two of said groups (sham and control groups) received s.c. saline 2 ml/kg; 6 groups received s.c. […] One group was treated with a s.c. Alzet pump loaded with 200 mg/ml IP6. Calcification was induced by oral administration of 300,000 IU/kg vitamin D (2 ml/kg) for 3 days starting on treatment day 3. […] The calcium content in heart, aorta and kidneys was determined after treatment for 7 days.

[3] = Administration of IP6 via the dialysis system (closed circuit, human blood); type: in vitro ADME
Method: Objective: to establish the dialysability of IP6 in human blood using a real dialysis system and the effect thereof on calcium chelation.
Experimental: 1 liter of human blood obtained from patients undergoing therapeutic phlebotomy was introduced into a recipient forming a closed dialysis circuit to simulate a real dialysis. Two experiments were performed (administration pre- and post-dialyser, both in bypass and dialysis mode), administering IP6 to human blood for 20 minutes when outside the recipient (which simulated the animal or human body) and circulating via the dialysis circuit. The recipient containing 1 liter of whole blood at a controlled temperature of 37° C. is connected to the dialysis apparatus to form a closed circuit. The dialysis apparatus will be connected for 1 hour (dialysis fluid flow of 500 ml/min and blood flow of 350 ml/min). Blood samples are collected at different times to determine the IP6 and ionic calcium levels.

[4] = Calcium chelation by IP6 in vitro; type: physicochemical; details: 2.5 mM calcium in 0.15 M NaCl, pH 7.40
Method: Objective: to evaluate the ionic calcium chelation potential of IP6. Experimental: a 2.5 mM of calcium in NaCl 0.15 M, pH 7.40, was pipetted with increasing concentrations of IP6. The amount of free ionic calcium was measured potentiometrically using a calcium-selective electrode and a potentiometer.

[5] = tested on: tissue calcification in uraemic animals; test: Adenine model, non-bolus intravascular infusion of IP6; type: in vivo, Wistar rats
Method: Objective: to determine the efficacy of IP6 as a non-bolus type administration in the prevention of tissue calcification in uraemic animals.
Experimental: CKD was induced in 2 groups (n=12) of male Wistar rats by oral (p.o.) treatment with adenine (600 mg/kg/day) daily for 10 days. After treatment with adenine, the rats received alpha-calcidol at a dose of 300 ng/kg (3×/week, p.o.) until day 28. From day 0 until sacrifice (day 28), the animals were treated with an intravascular infusion of 50 mg/kg IP6 or saline for 4 hours. After 28 days the aorta and heart were collected and the tissue calcium content determined.

[6] = In vitro binding kinetics of IP6 to HAP; details: 130 mg HAP
Method: Objective: to analyse the binding rate of IP6 to HAP.
Experimental: 130 mg HAP was incubated (in triplicate) with 7.6 μM IP6, at 37° C., pH 7.4, for different time intervals while stirring continuously.

[7] = PK profile of IP6 by 4 h intravenous infusion in normal and uraemic rats; type: in vivo, Wistar rats
Method: Objective: to evaluate the PK profile for IP6 in rats with normal kidney function and non-dialysed rats with renal impairment by intravenous infusion.
Experimental: Wistar rats with normal kidney function were treated daily with a dose of 10 or 50 mg/kg IP6 by intravenous fusion over 4 h. Plasma samples were obtained at different timepoints up to 4 hours on day 0. The animals were then treated orally with 600 mg/kg (p.o.) adenine for 10 days to induce renal impairment. The animals were treated with alpha-calcidol (300 ng/kg) on days 11 and 13 and plasma samples were collected at different timepoints up to 4 hours on day 14. The plasma IP6 levels were quantified for both groups.

[8] = tested on: tissue calcification in chronic renal impairment model (adenine); test: Adenine model, bolus-type s.c. IP6; type: in vivo, Wistar rats; details: s.c. bolus 3, 10 and 30 mg/kg, 28 days, adenine rats
Method: Objective: to determine the efficacy of IP6 in the prevention of tissue calcification in an animal model of chronic renal impairment (adenine).
Experimental: CKD was induced in 4 groups (n=12) of male Wistar rats by oral (p.o.) treatment with adenine (600 mg/kg/day) daily for 10 days. After treatment with adenine, the rats received alpha-calcidol at a dose of 300 ng/kg (3×/week, p.o.) until day 28. From day 0 until sacrifice (day 28), the animals were treated with a 2 ml/kg s.c. bolus of 0, 3, 10 and 30 mg/kg IP6. At each treatment, 3 additional animals were included to evaluate the […] for IP6. After 28 days the aorta, heart and right kidney were collected and the tissue calcium content determined.

[9] = tested on: serum ionic calcium, ECG and clinical signs; test: Cardiovascular function after bolus intravenous IP6 in conscious dogs (telemetry); type: in vivo
Method: Objective: to examine the effects of a bolus-type administration of IP6 in serum ionic calcium, ECG and clinical signs in dogs. Experimental: 4 male dogs, 2 per dose, were injected with 10, 15 and 30 mg/kg. Two washout days were introduced between the different doses. The ECGs were recorded telemetrically. Blood ionic calcium concentrations were determined on different days to the ECG measurements.

[10] = PK profile of IP6 s.c. in rats with normal and diminished kidney function; type: in vivo, Wistar rats
Method: Objective: to evaluate the PK profile for rats with normal kidney function and renal impairment. Experimental: a single s.c. dose (10 mg/kg) was administered to rats with normal kidney function. Plasma samples were obtained at different timepoints up to 60 minutes. A different group of Wistar rats received oral treatment with adenine 600 mg/kg (p.o.) for 10 days to induce renal impairment. Alpha-calcidol (300 ng/kg) was administered on days 11 and 13 and plasma samples were collected at different timepoints up to 60 minutes on day 14. The plasma IP6 concentrations were quantified for both groups.

[11] = tested on: vitamin D-induced cardiovascular calcification; test: Inhibition of vit D-induced (75,000 IU/kg x5) cardiovascular calcification by intravenous IP6; type: in vivo, Sprague Dawley (SD) rats
Method: Objective: to evaluate the efficacy of intravenous IP6 in inhibiting vitamin D-induced cardiovascular calcification in rats. Experimental: male Sprague Dawley (SD) rats were divided into 7 groups and IP6 was administered intravenously daily for 14 days at a dose of 0, 0.05, 0.1, 0.5, 1, 5 and 10 mg/kg. Calcification was induced by oral administration of 75,000 IU/kg vitamin D on treatment days 3 to 7. Samples were collected. On day 14 the aortas and hears of the animals were collected to quantify calcification.

[12] = tested on: tissue calcification in chronic renal impairment model (5/6 nephrectomised rats); test: 5/6 nephrectomy model, IP6 i.v. bolus; type: in vivo, SD rats; details: i.v. bolus 1 or 5 mg/kg, 8 weeks
Method: Objective: to determine the efficacy of intravenous IP6 in the prevention of tissue calcification in a chronic renal impairment model (5/6 nephrectomised rats).
Experimental: 48 SD rats were 5/6 nephrectomised by complete right lateral nephrectomy and ⅔ partial nephrectomy of the left kidney. 16 animals per group were treated intravenously (bolus) with 2 ml/kg saline, 1 mg/kg IP6 or 5 mg/kg IP6. The animals received a phosphate-rich diet (1% Ca, 1.2% P) containing 20% lactose. After 8 weeks the aorta, heart and remaining ⅓ kidney were collected and the tissue calcium content determined.

[13] = tested on: ECG and serum ionic calcium; test: Cardiovascular function after 2 h intravascular infusion of IP6 in conscious dogs (telemetry); type: in vivo; details: for peak IP6 level: dogs
Method: Objective: to determine the effects of a non-bolus type administration of IP6 on the electrocardiogram (ECG) and serum ionic calcium concentrations.
Experimental: 4 male dogs were treated with 3, 10 and 30 mg/kg IP6 by infusion for 2 h in a Latin square design. A washout period of one week was performed between doses. ECGs were measured telemetrically at 1 h and 20 minutes prior to infusion and 5, 15, 30, 45 minutes, 1, 2, 6 and 24 h post-infusion. In a second stage, blood samples were taken for PK, for the same doses, at 20 minutes prior to infusion and 5, 15, 30 minutes and 1, 1.5, 2, 3 and 6 h post-infusion. In this case the washout period between doses was 2 days. […]

[14] = In vitro affinity (adsorption) of IP6 for hydroxyapatite; type: binding
Method: Objective; the objective of this study is to analyse the affinity of IP6 for the target thereof, thereby obtaining a curve for the affinity of IP6 for HAP.
[…] The total quantity of IP6 bound to the surface of the target (HAP) was quantified.
To characterise the behaviour of IP6 binding, the EC50 and Emax for the adsorption thereof on HAP were calculated. This was performed using a non-linear regression model (Log [agonist] vs. response−slope variable; GraphPad Prism software).

[15] = without IP6, drug effect simulated by modifying calcium and phosphate concentrations
[16] = intravascular infusion 50 mg/kg for 4 hours, day 0-28, uraemic rats
[17] = normal Wistar rats, s.c. 10 mg/kg
[18] = i.v. between 1 and 10 mg/kg daily for 14 days

Compound: C[C@@H](NCCCc1cccc(C(F)(F)F)c1)c1cccc2ccccc12 [cinacalcet, reference compound]
- induction period of HAP crystallisation [1, 15]: 14 min

Compound: O=P([O-])([O-])OP(=O)([O-])[O-].[Na+].[Na+].[Na+].[Na+] [pyrophosphate, sodium pyrophosphate, reference compound]
- efficacy on calcification ([2]; s.c., at higher doses than IP6): good efficacy

Compound: sevelamer [reference compound]
- induction period of HAP crystallisation [1, 15]: 15 min

Compound: O=P(O)(O)O[C@H]1[C@H](OP(=O)(O)O)[C@@H](OP(=O)(O)O)[C@H](OP(=O)(O)O)[C@@H](OP(=O)(O)O)[C@H]1OP(=O)(O)O [IP6, inositol hexaphosphate]
- dialysability of IP6 ([3]; administration via dialysis line for 20 minutes): not lost via the dialysis membrane
- effect on free calcium ([3]; apparatus in bypass mode): chelates (sequesters) free calcium
- effect on ionic calcium ([3]; apparatus in dialysis mode): ionic calcium levels are restored
- IP6 concentration at saturation of calcium chelation [4]: 3788 µM
- IP6 concentration with significant ionic calcium chelation [4]: about 379 μM
- reduction in average calcification in the aorta [5, 16]: 80%
- reduction in average calcification in the heart [5, 16]: 85%
- reduction of plasma IP6 levels by the end of the experiment ([5]; uraemic rats, due to high metabolic rate): 90%
- time to adsorption maximum ([6]; 7.6 μM IP6, 37° C., pH 7.4): 60 min
- fraction of maximum binding achieved ([6]; after 5 minutes, 7.6 μM IP6): Around 80%
- peak plasma concentration ([7]; normal rats, 10 mg/kg i.v. infusion over 4 h): 8.4 µM
- peak plasma concentration ([7]; normal rats, 50 mg/kg i.v. infusion over 4 h): 68.4 µM
- peak plasma concentration ([7]; uraemic rats, 10 mg/kg i.v. infusion over 4 h): 2.8 µM
- peak plasma concentration ([7]; uraemic rats, 50 mg/kg i.v. infusion over 4 h): 24.6 µM
- time approximately constant plasma concentration maintained ([7]; uraemic rats, 50 mg/kg infusion, from hour 1 to hour 4): 3 h
- calcification inhibition (aorta, heart, right kidney) [8]: no evidence of calcification inhibition
- ECG findings ([9]; i.v. bolus above 15 mg/kg, becoming significant above 30 mg/kg): mild tachycardia and prolonged QTc interval
- decrease in ionic calcium ([9]; i.v. bolus, correlated with prolonged QTc): 30%
- duration of measurable plasma levels [10, 17]: at least 30 minutes
- peak plasma concentration [10, 17]: 7.4 µM
- time of peak concentration post-administration [10, 17]: 15 min
- metabolites detected ([10]; plasma, rats): Lower inositol phosphates (IP5, IP4, IP3, IP2, IP1) and inositol
- peak plasma concentration ([10]; uraemic rats (adenine), s.c. 10 mg/kg): 1.8 µM
- induction period of HAP crystallisation ([1]; 11.4 μM IP6, pH 7.4, control 8 minutes): 28 min
- combination effect on induction period ([1]; IP6 0-11.4 μM with simulated cinacalcet or sevelamer): clear synergistic effect
- efficacy (inhibition of calcification) ([2]; s.c. 60 mg/kg): approximately 60%
- efficacy (inhibition of calcification) ([2]; s.c. 100 mg/kg): approximately 60%
- minimum dose that produced a significant effect on calcification ([2]; s.c., aorta): 10 mg/kg
- effect on mineral content of the aorta and heart ([11]; i.v. 0.05 to 0.5 mg/kg daily for 14 days): did not affect
- reduction of calcification in aorta [11, 18]: up to 60%
- reduction of calcification in heart [11, 18]: ≤ 68%
- calcification inhibition (aorta, heart, remaining kidney) [12]: no evidence of calcification inhibition
- peak IP6 level ([13]; 3 mg/kg infusion 2 h): 27 µM
- peak IP6 level ([13]; 10 mg/kg infusion 2 h): 150 µM
- peak IP6 level ([13]; 30 mg/kg infusion 2 h): 482 µM
- state of health, weight, cardiorespiratory function, ECG, body temperature, total and free potassium in blood ([13]; infusion for 2 h, 3, 10 and 30 mg/kg, any dose): relatively unaffected
- overall effects on dogs ([13]; infusion of 3, 10 and 30 mg/kg for 2 h): no negative effects
- Emax for adsorption on HAP (saturation) [14]: 6.42 mg/g
- maximum adsorption of IP6 on the HAP surface ([14]; 300 mg HAP, 7.6 μM IP6, 8 hours): 4.8 mg
- IP6 concentration at saturation of adsorption on HAP ([14]; 37° C., pH 7.4): ≥ 7.6 µM
